Source: patent US11674962B2, “Therapeutic and diagnostic methods for cancer” (Genentech, Inc., priority 2017, dated 2023)

Key:
[1] = system: treatment-naive, locally advanced or metastatic (stage IIIB-IVB) NSCLC; assay: B-F1RST phase II trial (NCT02848651) interim analysis: efficacy of first-line atezolizumab by bTMB subgroup; assay type: in vivo, human
Description: (§1) The B-F1 RST (Clinical Trial ID No.: NCT02848651) patient population being evaluated for bTMB score consists of approximately 150 patients at 20 to 25 study sites (N=153). Patients are eligible for enrollment in the B-F1 RST study if they have treatment-naïve, locally advanced or metastatic (e.g., stage IIIB-IVB) NSCLC; measurable disease, as defined by RECIST v1.1; and an ECOG performance status of 0 or 1. Exclusion criteria include sensitizing EGFR mutations or ALK rearrangements; active brain metastases requiring treatment; leptomeningeal disease; other malignancies within 5 years of enrollment; HBV, HCV, or HIV infection; or history of autoimmune disorder. Participants are divided into cohorts based on bTMB score and receive atezolizumab at a dose of 1200 mg intravenously every three weeks. All patients undergo tumor assessment at baseline and every 6 weeks for the first 12 months following cycle 1, day 1, and then every 9 weeks therafter. Treatment with atezolizumab can be continued as long as participants were experiencing clinical benefit, i.e., in the absence of unacceptable toxicity or symptomatic deterioration attributed to disease progression. Tumor assessments continue until disease progression per RECIST v1.1 or loss of clinical benefit (investigator assessed), consent withdrawal, study discontinuation, study completion, or death. Mandatory blood samples are taken at baseline, during therapy, and at progression to evaluate changes in exploratory biomarkers. The interim analysis was prespecified to occur at 6 months after 50% of the patients have been enrolled, with a prespecified bTMB score of ≥16. The co-primary endpoints are the clinical efficacy of atezolizumab (as evaluated by investigator-assessed ORR per RECIST v1.1) and the relationship between bTMB and PFS benefit (as evaluated by investigator-assessed PFS per RECIST v1.1). The secondary objectives are safety and assessment of efficacy by investigator-assessed duration of response (DOR) and OS.
(§2) Of 78 treated patients in the interim analysis population (IAP) from the B-F1 RST study, 58 had adequate blood samples with sufficient detection of circulating tumor DNA (MSAF≥1%) and comprised the biomarker-evaluable population (BEP). One patient of the IAP was never treated and therefore not safety- or efficacy-evaluable. A bTMB score of 16 (prevalence, 19% [11/58]) was prespecified to evaluate clinical efficacy in the BEP (bTMB high, ≥16; bTMB low, <16). Statistical tests were 2-sided at a 0.1 level and 90% confidence interval.

[2] = system: treatment-naive, locally advanced or metastatic (stage IIIB-IVB) NSCLC; assay: B-F1RST phase II trial (NCT02848651) interim analysis: safety (adverse events) of atezolizumab; assay type: in vivo, human
Description: as §1, §2

[3] = bTMB cut-off score 12, BEP n = 58
[4] = bTMB cut-off score 14, BEP n = 58
[5] = bTMB cut-off score 16, BEP n = 58
[6] = bTMB cut-off score 20, BEP n = 58

atezolizumab
disease control rate ([1]; B-F1RST interim analysis, BEP (n=58)): 25.9%
ORR ([1]; B-F1RST interim analysis, BEP (n=58), RECIST v1.1): 12.1%
PFS HR (90% CI) ([1]; B-F1RST interim analysis, bTMB high (≥16) vs low (<16)): 0.51
median PFS ([1]; B-F1RST interim analysis, bTMB high (≥16), minimum follow-up of 6 months): 9.5 months
ORR ([1]; B-F1RST interim analysis, bTMB high (≥16), n=11): 36.4%
ORR odds ratio (90% CI) ([1]; B-F1RST interim analysis, bTMB high versus low groups): 8.38
median PFS ([1]; B-F1RST interim analysis, bTMB low (<16), minimum follow-up of 6 months): 2.8 months
ORR ([1]; B-F1RST interim analysis, bTMB low (<16), n=47): 6.4%
ORR per RECIST v.1.1 ([1]; BEP (n = 58)): 12.1%
PD per RECIST v.1.1 ([1]; BEP (n = 58)): 37.9%
PR per RECIST v.1.1 ([1]; BEP (n = 58)): 12.1%
ORR per RECIST v.1.1 ([1]; IAP (n = 78)): 15.4%
PD per RECIST v.1.1 ([1]; IAP (n = 78)): 37.2%
PR per RECIST v.1.1 ([1]; IAP (n = 78)): 15.4%
PFS Median, bTMB High [1, 3]: 3.0 (22) months
PFS Median, bTMB Low [1, 3]: 3.2 (36) months
PFS Median, bTMB High [1, 4]: 3.4 (14) months
PFS Median, bTMB Low [1, 4]: 3.2 (44) months
PFS Median, bTMB High [1, 5]: 9.5 (11) months
PFS Median, bTMB Low [1, 5]: 2.8 (47) months
PFS Median, bTMB High [1, 6]: 9.5 (8) months
PFS Median, bTMB Low [1, 6]: 2.7 (50) months
ORR per RECIST v.1.1 ([1]; bTMB high (n = 11)): 36.4%
PD per RECIST v.1.1 ([1]; bTMB high (n = 11)): 36.4%
PR per RECIST v.1.1 ([1]; bTMB high (n = 11)): 36.4%
PFS HR ([1]; bTMB high (≥16) vs bTMB low (<16), Table 20): 0.51
median PFS ([1]; bTMB high (≥16), n = 11, BEP, first-line atezolizumab, minimum follow-up 6 months): 9.5 mo
PFS HR ([1]; bTMB high vs low at cut-off score 12, BEP n = 58): 0.95
PFS HR ([1]; bTMB high vs low at cut-off score 14, BEP n = 58): 0.73
PFS HR ([1]; bTMB high vs low at cut-off score 16, BEP n = 58, Table 21): 0.49
PFS HR ([1]; bTMB high vs low at cut-off score 20, BEP n = 58): 0.23
median PFS ([1]; bTMB low (<16), n = 47, BEP, first-line atezolizumab, minimum follow-up 6 months): 2.8 mo
ORR per RECIST v.1.1 ([1]; bTMB low (n = 47)): 6.4%
PD per RECIST v.1.1 ([1]; bTMB low (n = 47)): 38.3%
PR per RECIST v.1.1 ([1]; bTMB low (n = 47)): 6.4%
Treatment-related Grade 5 AEs ([2]; Patients in IAP (n = 78)): ^bNo treatment-related Grade 5 AEs were reported.
Grade 5 AEs, any cause ([2]; Patients in IAP (n = 78), reported as death, cardiac arrest, pulmonary embolism (n = 1 each)): 3 (3.8%) n (%)
AE of special interest: Adrenal insufficiency ([2]; in vivo): 1 (1.3%) n (%)
AEs leading to discontinuation, patients ([2]; in vivo): 15.4%
AEs leading to treatment discontinuation ([2]; in vivo): 12 (15.4%) n (%)
AEs, any cause ([2]; in vivo): 78 (100.0%) n (%)
Grade 3-4 AEs, any cause ([2]; in vivo): 40 (51.3%) n (%)
SAEs, any cause ([2]; in vivo): 35 (44.9%) n (%)
Treatment-related AEs ([2]; in vivo): 59 (75.6%) n (%)
Treatment-related Grade 3-4 AEs ([2]; in vivo): 15 (19.2%) n (%)
Treatment-related SAEs ([2]; in vivo): 12 (15.4%) n (%)
Treatment-related serious AEs, patients ([2]; in vivo): 14.1%
tolerability ([2]; in vivo): well tolerated
treatment-related grade 3/4 AEs, patients ([2]; in vivo): 16.7%
